According to patent US10899700B2, “Process for the separation of long chain amino acids and dibasic acids” (Vitaworks IP, LLC, priority 2017, dated 2021):

Columns and labels:
[1] = Solubility of sodium salts in water, ethanol and aqueous ethanol (FIG. 8); format: physicochemical; conditions: for solubility change of the sodium salt in aqueous ethanol (in words): aqueous ethanol versus water or ethanol; for solubility of the sodium salt in water and in ethanol (in words): both water and ethanol
Source text: FIG. 8. Solubility of 11-aminoundecanoic acid and dodecanedioic acid in aqueous ethanol solution of 2 M sodium hydroxide at different concentration of ethanol.
For example, FIG. 8 illustrates the solubility change of sodium salts of 11-aminoundecanoic acid and dodecanedioic acid in aqueous ethanol. […] This surprising finding renders the separation of these two salts possible.

[2] = Solubility of alkali salts in sodium hydroxide solution (FIG. 6, FIG. 7); format: physicochemical; conditions: 2 M sodium hydroxide, about 50° C.
Protocol: FIG. 6. Solubility curve of 11-aminoundecanoic acid in water at neutral pH, 1 M solution of sulfuric acid, and 2 M solution of sodium hydroxide.
FIG. 7. Solubility curve of heptanoic acid in a 6 M solution of sodium hydroxide and dodecanedioic acid in a 3 M solution of sodium hydroxide.
When the hydrolysis reaction of mixed amide derivatives from the Beckmann rearrangement is performed in the presence of alkali hydroxide, main products other than alkylamine are obtained in the form of their alkali salts. It was observed that a starting suspension of the mixed amide derivatives in a solution of alkali hydroxide is changed to a clear solution at a temperature of 60° C. or above after the hydrolysis.
Since long chain amino acid, e.g., 11-aminoundecanoic acid, has relatively constant solubility, evaporative concentration of the mother liquor will result in the crystallization of inorganic salt, in particular, sodium sulfate, along with valuable long chain amino acid. […] This finding greatly facilitates the separation of inorganic salt, most preferably, sodium sulfate, and the recovery of long chain amino acids.
In an alkali hydroxide hydrolysis of the mixed amide derivatives, two mole equivalents of alkali hydroxide are required, but more than two equivalents, usually between 2.5 to 3 equivalents of alkali hydroxide are used to achieve a complete hydrolysis. […]

physchem = conditions: aqueous buffer
[3] = Phase separation of hexylamine-water azeotrope distillate upon cooling; format: physicochemical; conditions: aqueous phase after cooling and phase separation
Source text: For the production of 11-aminoundecanoic acid and dodecanedioic acid, hexylamine is one of the main products. Hexylamine is found to form an azeotrope with water and can be separated from the solution by azeotropic distillation. Upon cooling, the distillate separates into an upper phase of nearly pure hexylamine and an aqueous phase containing not more than 2% of hexylamine. Hexylamine can also be separated from the mixture by steam distillation or steam stripping. Complete separation is accomplished when the distillate at the overhead becomes nearly neutral at a pH of 7-8.

NCCCCCCCCCCC(=O)O [11-aminoundecanoic acid]
solubility change of the sodium salt in aqueous ethanol (in words) [1]: drastically increases the solubility
solubility of the sodium salt in water and in ethanol (in words) [1]: nearly insoluble
solubility of the alkali salt in 2 M solution of sodium hydroxide (in words) [2]: freely soluble

O=C(O)CCCCCCCC(=O)O [azelaic acid]
solubility (physchem): > 600 mg/mL

O=C(O)CCCCCCCCCCC(=O)O [dodecanedioic acid]
solubility change of the sodium salt in aqueous ethanol (in words) [1]: remains unchanged
solubility of the sodium salt in water and in ethanol (in words) [1]: nearly insoluble

CCCCCCN [hexylamine]
hexylamine content of the aqueous phase of the cooled azeotropic distillate [3]: not more than 2%
